# What was measured:
# Conditions in all cases: compound at 10 μM
# [1] = molecular target: T1, Human Melanocortin (MC3) (Homo sapiens, UniProt P41968); assay: Radioligand binding, human melanocortin MC3 membranes, FlashPlate, [125I]-NDP-αMSH
# T1 construct: purchased Perkin Elmer Biosignal
# Method in brief: (§1)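 Cloned human receptor membranes were coated onto FlashPlate wells and incubated with radioligand and compound (added from a 0.5 mM DMSO daughter plate) for 1 hour at room temperature in the dark. Scintillation counting gave percent inhibition, with DMSO defining total and reference ligand defining non-specific binding.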
# [2] = molecular target: T2, Human δ-opioid (DOP) (Homo sapiens, UniProt P41143); assay: Radioligand binding, human δ-opioid (DOP) membranes, FlashPlate, [3H]-Bremazocine
# T2 construct: purchased Perkin Elmer Biosignal
# Method in brief: as §1
# [3] = molecular target: T3, Human neuropeptide Y (NPY-Y1) (Homo sapiens, UniProt P25929); assay: Radioligand binding, human neuropeptide Y NPY-Y1 membranes, FlashPlate, [125I]-PYY
# T3 construct: purchased Perkin Elmer Biosignal
# T3 sequence (P25929 1-384): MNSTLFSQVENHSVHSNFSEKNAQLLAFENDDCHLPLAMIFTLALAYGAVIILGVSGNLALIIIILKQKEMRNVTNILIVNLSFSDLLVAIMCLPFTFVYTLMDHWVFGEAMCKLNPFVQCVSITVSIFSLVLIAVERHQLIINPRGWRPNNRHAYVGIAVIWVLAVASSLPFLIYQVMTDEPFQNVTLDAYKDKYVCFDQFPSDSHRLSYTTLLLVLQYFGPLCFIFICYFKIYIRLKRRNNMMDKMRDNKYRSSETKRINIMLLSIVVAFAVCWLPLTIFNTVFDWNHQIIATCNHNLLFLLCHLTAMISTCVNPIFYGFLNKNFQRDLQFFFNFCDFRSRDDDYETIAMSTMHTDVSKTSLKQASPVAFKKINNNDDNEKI
# Method in brief: as §1
# [4] = molecular target: T4, Human opioid (ORL1) (Homo sapiens, UniProt P41146); assay: Radioligand binding, human opioid ORL1 membranes, FlashPlate, [125I]-Nociceptin
# T4 construct: purchased Perkin Elmer Biosignal
# Method in brief: as §1
# [5] = molecular target: T5, Human melanin-concentrating hormone (MCH1) (Homo sapiens, UniProt Q99705); assay: Radioligand binding, human melanin-concentrating hormone MCH1 membranes, FlashPlate, [125I]-S36057
# T5 construct: purchased Perkin Elmer Biosignal
# Method in brief: as §1
# [6] = molecular target: T6, Human melanocortin (MC5) (Homo sapiens, UniProt P33032); assay: Radioligand binding, human melanocortin MC5 membranes, FlashPlate, [125I]-NDP-αMSH
# T6 construct: purchased Perkin Elmer Biosignal
# Method in brief: as §1
# [7] = molecular target: T7, Human κ-Opioid (KOP) (Homo sapiens, UniProt P41145); assay: Radioligand binding, human κ-opioid (KOP) membranes, filtration, [3H]-Diprenorphine
# T7 construct: purchased Perkin Elmer Biosignal
# Method in brief: (§2)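 Membranes from cloned human receptors were incubated with compound and radioligand for 1 hour at room temperature. Bound ligand was collected on 0.3% PEI-soaked filters, washed with cold 50 mM Tris-HCl pH 7.4, and counted by scintillation. Percent inhibition was computed against DMSO totals and reference-ligand nonspecific wells.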
# [8] = molecular target: T8, Human μ-opioid (MOP) (Homo sapiens, UniProt P35372); assay: Radioligand binding, human μ-opioid (MOP) membranes, FlashPlate, [3H]-Naloxone
# T8 construct: purchased Perkin Elmer Biosignal
# Method in brief: as §1
# [9] = molecular target: T9, Human Melanocortin (MC4) (Homo sapiens, UniProt P32245); assay: Radioligand binding, human melanocortin MC4 membranes, FlashPlate, [125I]-NDP-αMSH
# T9 construct: purchased Perkin Elmer Biosignal
# Method in brief: as §1
# [10] = molecular target: T10, Mouse urotensin (mUR2) (Mus musculus, UniProt Q8VIH9); assay: Radioligand binding, mouse urotensin mUR2 membranes, FlashPlate, [125I]-Urotensin II
# T10 construct: purchased Perkin Elmer Biosignal
# T10 sequence (Q8VIH9 1-385): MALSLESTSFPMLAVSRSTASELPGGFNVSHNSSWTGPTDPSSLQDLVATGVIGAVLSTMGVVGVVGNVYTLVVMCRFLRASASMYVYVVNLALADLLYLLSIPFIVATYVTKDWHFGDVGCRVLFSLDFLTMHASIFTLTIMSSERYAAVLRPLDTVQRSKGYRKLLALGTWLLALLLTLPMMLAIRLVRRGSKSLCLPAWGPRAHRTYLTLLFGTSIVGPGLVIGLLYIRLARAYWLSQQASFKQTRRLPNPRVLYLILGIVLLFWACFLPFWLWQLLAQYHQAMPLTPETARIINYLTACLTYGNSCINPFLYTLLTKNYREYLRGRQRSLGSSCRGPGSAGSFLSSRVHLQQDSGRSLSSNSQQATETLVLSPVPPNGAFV
# Method in brief: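 Cloned mouse urotensin (mUR2) receptor membranes from Perkin Elmer Biosignal were immobilized in FlashPlate microplates using a proprietary coating. Each well got 19.5 μl buffer, then 0.5 μl of DMSO, reference ligand, or compound. Adding 5 μl of [125I]-Urotensin II, diluted to 5× final concentration in binding buffer, started binding. Plates were sealed with TopSeal-A and incubated 1 hour at room temperature in the dark. Wells were counted for 30 seconds each on a TopCount after a 60-second delay, and percentage inhibition was calculated.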
# [11] = molecular target: T11, Human neurokinin (NK1) (Homo sapiens, UniProt P25103); assay: Radioligand binding, human neurokinin NK1 membranes, filtration, [125I]-Substance P
# T11 construct: purchased Perkin Elmer Biosignal
# Method in brief: as §2
# T4 sequence (P41146 whole entry): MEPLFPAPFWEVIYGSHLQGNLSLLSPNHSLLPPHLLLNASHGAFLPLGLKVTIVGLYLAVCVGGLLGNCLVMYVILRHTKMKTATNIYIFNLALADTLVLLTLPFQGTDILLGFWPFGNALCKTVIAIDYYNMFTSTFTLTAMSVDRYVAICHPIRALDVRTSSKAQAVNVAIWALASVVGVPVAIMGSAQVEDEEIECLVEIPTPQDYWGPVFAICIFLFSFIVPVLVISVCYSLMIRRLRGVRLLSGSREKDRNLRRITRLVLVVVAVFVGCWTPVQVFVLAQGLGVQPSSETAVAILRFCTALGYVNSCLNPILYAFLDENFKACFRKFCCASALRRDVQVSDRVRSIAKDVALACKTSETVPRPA
# T6 sequence (P33032 whole entry): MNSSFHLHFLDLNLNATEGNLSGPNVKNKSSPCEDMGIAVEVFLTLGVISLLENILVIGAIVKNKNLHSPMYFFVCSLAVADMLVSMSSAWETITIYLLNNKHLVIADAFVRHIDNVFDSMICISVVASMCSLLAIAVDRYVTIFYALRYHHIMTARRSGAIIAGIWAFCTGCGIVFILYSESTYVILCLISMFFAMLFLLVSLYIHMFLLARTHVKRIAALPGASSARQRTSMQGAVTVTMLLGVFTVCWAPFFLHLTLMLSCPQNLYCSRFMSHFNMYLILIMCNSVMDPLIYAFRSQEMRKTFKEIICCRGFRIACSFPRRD
# T8 sequence (P35372 whole entry): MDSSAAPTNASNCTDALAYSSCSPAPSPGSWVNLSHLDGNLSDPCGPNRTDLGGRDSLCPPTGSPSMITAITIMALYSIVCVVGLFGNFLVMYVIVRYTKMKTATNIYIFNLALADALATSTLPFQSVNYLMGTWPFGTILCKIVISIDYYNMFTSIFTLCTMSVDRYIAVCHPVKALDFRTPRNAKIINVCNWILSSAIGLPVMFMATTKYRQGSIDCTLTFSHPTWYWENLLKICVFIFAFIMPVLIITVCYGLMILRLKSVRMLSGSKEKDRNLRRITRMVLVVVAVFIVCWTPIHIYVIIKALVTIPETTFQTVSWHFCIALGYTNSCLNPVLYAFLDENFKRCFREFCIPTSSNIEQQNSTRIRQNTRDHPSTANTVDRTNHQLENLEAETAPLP
# T9 sequence (P32245 whole entry): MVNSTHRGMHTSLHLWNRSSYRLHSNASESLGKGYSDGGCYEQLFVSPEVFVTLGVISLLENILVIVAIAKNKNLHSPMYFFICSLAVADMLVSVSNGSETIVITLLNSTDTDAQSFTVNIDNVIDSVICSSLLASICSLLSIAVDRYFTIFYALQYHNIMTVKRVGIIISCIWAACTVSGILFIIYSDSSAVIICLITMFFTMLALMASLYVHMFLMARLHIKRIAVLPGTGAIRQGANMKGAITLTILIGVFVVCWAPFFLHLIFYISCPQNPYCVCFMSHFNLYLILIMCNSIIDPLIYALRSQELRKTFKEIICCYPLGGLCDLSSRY
# T5 sequence (Q99705 whole entry): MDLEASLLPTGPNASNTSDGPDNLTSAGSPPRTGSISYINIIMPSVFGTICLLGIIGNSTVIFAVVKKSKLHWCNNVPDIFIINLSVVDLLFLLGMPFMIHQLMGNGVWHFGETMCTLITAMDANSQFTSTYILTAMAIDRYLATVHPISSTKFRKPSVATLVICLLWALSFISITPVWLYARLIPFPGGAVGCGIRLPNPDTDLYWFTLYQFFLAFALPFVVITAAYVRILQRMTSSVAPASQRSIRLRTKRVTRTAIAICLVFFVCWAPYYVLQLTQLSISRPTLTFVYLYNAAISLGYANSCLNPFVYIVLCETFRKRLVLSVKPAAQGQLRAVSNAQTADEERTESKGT
# T2 sequence (P41143 whole entry): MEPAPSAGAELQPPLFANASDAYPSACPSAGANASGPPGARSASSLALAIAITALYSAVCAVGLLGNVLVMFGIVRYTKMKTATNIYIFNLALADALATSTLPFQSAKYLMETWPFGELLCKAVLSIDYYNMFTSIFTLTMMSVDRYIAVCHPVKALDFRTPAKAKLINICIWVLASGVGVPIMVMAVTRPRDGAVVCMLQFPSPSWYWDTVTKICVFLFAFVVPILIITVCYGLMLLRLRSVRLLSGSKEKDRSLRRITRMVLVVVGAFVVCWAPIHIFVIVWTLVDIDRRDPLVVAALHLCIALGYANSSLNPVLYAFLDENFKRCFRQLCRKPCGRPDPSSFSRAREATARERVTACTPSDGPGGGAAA
# T1 sequence (P41968 whole entry): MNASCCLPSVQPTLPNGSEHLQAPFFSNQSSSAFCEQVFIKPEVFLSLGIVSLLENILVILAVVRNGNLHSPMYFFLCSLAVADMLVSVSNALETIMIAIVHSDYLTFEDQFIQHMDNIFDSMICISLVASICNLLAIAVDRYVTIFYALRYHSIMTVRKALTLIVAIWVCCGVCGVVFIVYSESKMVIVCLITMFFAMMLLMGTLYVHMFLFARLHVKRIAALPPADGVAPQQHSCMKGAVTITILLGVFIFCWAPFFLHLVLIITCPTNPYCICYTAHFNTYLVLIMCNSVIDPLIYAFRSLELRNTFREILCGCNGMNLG
# T11 sequence (P25103 whole entry): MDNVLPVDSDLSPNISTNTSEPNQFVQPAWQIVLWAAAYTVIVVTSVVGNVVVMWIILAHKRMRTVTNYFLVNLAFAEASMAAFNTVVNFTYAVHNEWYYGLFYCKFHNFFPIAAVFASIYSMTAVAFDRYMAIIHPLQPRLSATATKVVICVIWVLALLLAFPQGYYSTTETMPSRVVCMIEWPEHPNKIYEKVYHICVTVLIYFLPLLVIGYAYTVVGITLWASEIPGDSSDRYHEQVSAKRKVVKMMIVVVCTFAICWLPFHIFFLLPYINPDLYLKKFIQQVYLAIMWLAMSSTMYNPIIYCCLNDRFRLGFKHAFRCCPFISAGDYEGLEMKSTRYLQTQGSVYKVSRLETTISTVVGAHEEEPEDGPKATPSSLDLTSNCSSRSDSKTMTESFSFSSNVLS
# T7 sequence (P41145 whole entry): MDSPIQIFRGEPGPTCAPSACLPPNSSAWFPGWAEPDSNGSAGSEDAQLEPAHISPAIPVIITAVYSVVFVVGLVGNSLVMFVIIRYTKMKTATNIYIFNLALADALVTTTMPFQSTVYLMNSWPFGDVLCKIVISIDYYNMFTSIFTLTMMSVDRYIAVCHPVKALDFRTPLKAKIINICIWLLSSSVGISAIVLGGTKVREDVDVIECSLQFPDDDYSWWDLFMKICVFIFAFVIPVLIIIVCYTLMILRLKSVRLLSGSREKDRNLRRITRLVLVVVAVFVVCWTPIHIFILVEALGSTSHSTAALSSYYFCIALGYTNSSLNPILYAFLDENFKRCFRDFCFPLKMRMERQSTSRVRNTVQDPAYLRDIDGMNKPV
compound,measurement,setting,value
N=C(N)NCCC(=O)N[C@H]1C(OCc2ccc(Cl)cc2)O[C@H](COCc2ccc3ccccc3c2)[C@@H](O)[C@@H]1OCc1ccc(-c2ccccc2)cc1 (stereo partly shown) [compound 534],"A3: inhibition of radioligand binding, human melanocortin (MC3)",[1]; [125I]-NDP-αMSH,+ (“+” indicates greater than 50% inhibition at 10 μM)
same,"A1: inhibition of radioligand binding, human δ-opioid (DOP)",[2]; [3H]-Bremazocine,− (“−” indicates less than 50% inhibition at 10 μM)
same,"A9: inhibition of radioligand binding, human neuropeptide Y (NPY-Y1)",[3]; [125I]-PYY,− (“−” indicates less than 50% inhibition at 10 μM)
same,"A10: inhibition of radioligand binding, human opioid (ORL1)",[4]; [125I]-Nociceptin,− (“−” indicates less than 50% inhibition at 10 μM)
same,"A6: inhibition of radioligand binding, human melanin-concentrating hormone (MCH1)",[5]; [125I]-S36057,+ (“+” indicates greater than 50% inhibition at 10 μM)
same,"A5: inhibition of radioligand binding, human melanocortin (MC5)",[6]; [125I]-NDP-αMSH,+ (“+” indicates greater than 50% inhibition at 10 μM)
same,"A2: inhibition of radioligand binding, human κ-opioid (KOP)",[7]; [3H]-Diprenorphine,− (“−” indicates less than 50% inhibition at 10 μM)
same,"A7: inhibition of radioligand binding, human μ-opioid (MOP)",[8]; [3H]-Naloxone,− (“−” indicates less than 50% inhibition at 10 μM)
same,"A4: inhibition of radioligand binding, human melanocortin (MC4)",[9]; [125I]-NDP-αMSH,+ (“+” indicates greater than 50% inhibition at 10 μM)
same,"A11: inhibition of radioligand binding, mouse urotensin (mUR2)",[10]; [125I]-Urotensin II,− (“−” indicates less than 50% inhibition at 10 μM)
same,"A8: inhibition of radioligand binding, human neurokinin (NK1)",[11]; [125I]-Substance P,+ (“+” indicates greater than 50% inhibition at 10 μM)
CO[C@H]1[C@H](O)[C@@H](COCc2ccc(-c3ccccc3)cc2)OC(OCCc2ccccc2)[C@@H]1NC(=O)CCCNC(=N)N (stereo partly shown) [compound 112],"A3 radioligand binding, percentage inhibition",[1]; [125I]-NDP-αMSH,+ (“+” indicates greater than 50% inhibition at 10 μM)
same,"A1 radioligand binding, percentage inhibition",[2]; [3H]-Bremazocine,− (“−” indicates less than 50% inhibition at 10 μM)
same,"A9 radioligand binding, percentage inhibition",[3]; [125I]-PYY,− (“−” indicates less than 50% inhibition at 10 μM)
same,"A10 radioligand binding, percentage inhibition",[4]; [125I]-Nociceptin,− (“−” indicates less than 50% inhibition at 10 μM)
same,"A6 radioligand binding, percentage inhibition",[5]; [125I]-S36057,− (“−” indicates less than 50% inhibition at 10 μM)
same,"A5 radioligand binding, percentage inhibition",[6]; [125I]-NDP-αMSH,+ (“+” indicates greater than 50% inhibition at 10 μM)
same,"A2 radioligand binding, percentage inhibition",[7]; [3H]-Diprenorphine,− (“−” indicates less than 50% inhibition at 10 μM)
same,"A7 radioligand binding, percentage inhibition",[8]; [3H]-Naloxone,− (“−” indicates less than 50% inhibition at 10 μM)
same,"A4 radioligand binding, percentage inhibition",[9]; [125I]-NDP-αMSH,+ (“+” indicates greater than 50% inhibition at 10 μM)
same,"A11 radioligand binding, percentage inhibition",[10]; [125I]-Urotensin II,− (“−” indicates less than 50% inhibition at 10 μM)
same,"A8 radioligand binding, percentage inhibition",[11]; [125I]-Substance P,+ (“+” indicates greater than 50% inhibition at 10 μM)
COC[C@H]1OC(OCc2ccc(Cl)cc2)[C@H](NC(=O)CCNC(=N)N)[C@@H](OCc2ccc3ccccc3c2)[C@@H]1O (stereo partly shown) [compound 32],A3 radioligand binding inhibition,[1]; human melanocortin MC3 membranes,− (“−” indicates less than 50% inhibition at 10 μM)
same,A1 radioligand binding inhibition,[2]; human δ-opioid (DOP) membranes,+ (“+” indicates greater than 50% inhibition at 10 μM)
same,A9 radioligand binding inhibition,[3]; human NPY-Y1 membranes,− (“−” indicates less than 50% inhibition at 10 μM)
same,A10 radioligand binding inhibition,[4]; human ORL1 membranes,− (“−” indicates less than 50% inhibition at 10 μM)
same,A6 radioligand binding inhibition,[5]; human MCH1 membranes,− (“−” indicates less than 50% inhibition at 10 μM)
same,A5 radioligand binding inhibition,[6]; human melanocortin MC5 membranes,+ (“+” indicates greater than 50% inhibition at 10 μM)
same,A2 radioligand binding inhibition,[7]; human κ-opioid (KOP) membranes,− (“−” indicates less than 50% inhibition at 10 μM)
same,A7 radioligand binding inhibition,[8]; human μ-opioid (MOP) membranes,− (“−” indicates less than 50% inhibition at 10 μM)
same,A4 radioligand binding inhibition,[9]; human melanocortin MC4 membranes,− (“−” indicates less than 50% inhibition at 10 μM)
same,A11 radioligand binding inhibition,[10]; mouse urotensin mUR2 membranes,− (“−” indicates less than 50% inhibition at 10 μM)
same,A8 radioligand binding inhibition,[11]; human neurokinin NK1 membranes,+ (“+” indicates greater than 50% inhibition at 10 μM)
N=C(N)NCC(=O)NC1C(OCc2ccc(-c3ccccc3)cc2)OC(COCc2ccccc2)C(O)C1OCc1ccc2ccccc2c1 (stereo not shown) [compound 403],A3: inhibition of radioligand binding,"[1]; [125I]-NDP-αMSH, human MC3 membranes",+ (“+” indicates greater than 50% inhibition at 10 μM)
same,A1: inhibition of radioligand binding,"[2]; [3H]-Bremazocine, human DOP membranes",− (“−” indicates less than 50% inhibition at 10 μM)
same,A9: inhibition of radioligand binding,"[3]; [125I]-PYY, human NPY-Y1 membranes",− (“−” indicates less than 50% inhibition at 10 μM)
same,A10: inhibition of radioligand binding,"[4]; [125I]-Nociceptin, human ORL1 membranes",+ (“+” indicates greater than 50% inhibition at 10 μM)
same,A6: inhibition of radioligand binding,"[5]; [125I]-S36057, human MCH1 membranes",+ (“+” indicates greater than 50% inhibition at 10 μM)
same,A5: inhibition of radioligand binding,"[6]; [125I]-NDP-αMSH, human MC5 membranes",+ (“+” indicates greater than 50% inhibition at 10 μM)
same,A2: inhibition of radioligand binding,"[7]; [3H]-Diprenorphine, human KOP membranes",− (“−” indicates less than 50% inhibition at 10 μM)
same,A7: inhibition of radioligand binding,"[8]; [3H]-Naloxone, human MOP membranes",− (“−” indicates less than 50% inhibition at 10 μM)
same,A4: inhibition of radioligand binding,"[9]; [125I]-NDP-αMSH, human MC4 membranes",+ (“+” indicates greater than 50% inhibition at 10 μM)
same,A11: inhibition of radioligand binding,"[10]; [125I]-Urotensin II, mouse mUR2 membranes",− (“−” indicates less than 50% inhibition at 10 μM)
same,A8: inhibition of radioligand binding,"[11]; [125I]-Substance P, human NK1 membranes",+ (“+” indicates greater than 50% inhibition at 10 μM)
CSC1O[C@H](COCc2ccc(Cl)cc2)[C@@H](O)[C@@H](OCc2ccc(-c3ccccc3)cc2)[C@H]1NC(=O)CNC(=N)N (stereo partly shown) [compound 289],"A3: inhibition of radioligand binding, human melanocortin (MC3)",[1]; [125I]-NDP-αMSH,− (“−” indicates less than 50% inhibition at 10 μM)
same,"A1: inhibition of radioligand binding, human δ-opioid (DOP)",[2]; [3H]-Bremazocine,− (“−” indicates less than 50% inhibition at 10 μM)
same,"A9: inhibition of radioligand binding, human neuropeptide Y (NPY-Y1)",[3]; [125I]-PYY,− (“−” indicates less than 50% inhibition at 10 μM)
same,"A10: inhibition of radioligand binding, human opioid (ORL1)",[4]; [125I]-Nociceptin,− (“−” indicates less than 50% inhibition at 10 μM)
same,"A6: inhibition of radioligand binding, human melanin-concentrating hormone (MCH1)",[5]; [125I]-S36057,− (“−” indicates less than 50% inhibition at 10 μM)
same,"A5: inhibition of radioligand binding, human melanocortin (MC5)",[6]; [125I]-NDP-αMSH,+ (“+” indicates greater than 50% inhibition at 10 μM)
same,"A2: inhibition of radioligand binding, human κ-opioid (KOP)",[7]; [3H]-Diprenorphine,− (“−” indicates less than 50% inhibition at 10 μM)
same,"A7: inhibition of radioligand binding, human μ-opioid (MOP)",[8]; [3H]-Naloxone,− (“−” indicates less than 50% inhibition at 10 μM)
same,"A4: inhibition of radioligand binding, human melanocortin (MC4)",[9]; [125I]-NDP-αMSH,+ (“+” indicates greater than 50% inhibition at 10 μM)
same,"A11: inhibition of radioligand binding, mouse urotensin (mUR2)",[10]; [125I]-Urotensin II,− (“−” indicates less than 50% inhibition at 10 μM)
same,"A8: inhibition of radioligand binding, human neurokinin (NK1)",[11]; [125I]-Substance P,+ (“+” indicates greater than 50% inhibition at 10 μM)
